Experimental data from US20120016010A1, “RNA Interference Mediated Inhibition of BTB and CNC Homology 1, Basic Leucine Zipper Transcription Factor 1 (BACH1) Gene Expression Using Short Interfering Nucleic Acid (siNA)” (Merck Sharp & Dohme Corp, priority 2009, published 2012).

Legend:
HMOX-1 mRNA = HMOX-1 mRNA increase in response to Bach1 siNA in human A549 cells; type: cell-based; details: 24 hrs post-transfection, mean ± SD
Description: A series of probes and primers were used to detect the various mRNA transcripts of the genes of Bach1, HMOX-1, and GAPDH in mouse and human cell lines. The assays were performed on an ABI 7900 instrument, according to the manufacturer's instructions. A TaqMan Gene Expression Master Mix (provided in the Cells-to-CTT™, Applied Biosystems, Cat # 4399002) was used. The PCR reactions were carried out at 50° C. for 2 min, 95° C. for 20 min followed by 40 cycles at 95° C. for 15 secs and 60° C. for 1 min
All calculations of IC50s were performed using SigmaPlot 10.0 software. The data were analyzed using the sigmoidal dose-response (variable slope) equation for simple ligand binding. In all of the calculations of the % knock-down, the calculation was made relative to the normalized level of expression of the gene of interest in the samples treated with the non-targeting control (Ctrl siNA) unless otherwise indicated.
For the statistical measures of significance for the HMOX-1 mRNA increase in response to Bach1 siNA treatment, a two-tailed Student's t-test on the dCt values for wells treated with the non-targeting control siNA compared with the dCt values for wells treated with the highest concentration of each respective active siNA, was performed.
Various siNAs were also evaluated for their potential to knock-down Bach1 protein. As no validated reagents were available to directly track changes in protein expression, this was done by assessing the increase in HMOX-1 mRNA in response to increasing doses of the active Bach1 siNAs.
The siNAs were tested at a single time point post-transfection (24 hrs). This was the time point at which the Bach1 mRNA levels had previously been determined. The non-targeting control siNA was also tested on each plate of samples and was found, across the six plates to show a maximum of 29±12% increase in the level of HMOX-1.
The comparison of the maximum percentage increase in HMOX-1 and EC50 and the maximum percentage decrease of Bach1 and IC50 are shown in Table 6. Table 6 also includes the measure of statistical significance for the increase in HMOX-1 mRNA levels in response to treatment with the respective Bach1 siNA.

HMOX1 mRNA = experiment: HMOX1 (HO-1) mRNA upregulation in human bronchial epithelial cells (NHBE); type: cell-based; details: 48 hours post transfection, mean of 3 donors
Description: Human Bronchial Epithelial cells (NHBE cells) obtained from Lonza (Cat. No. CC-2540) were grown at 37deg in the presence of 5% CO2 and cultured in BEBM basal medium (Lonza, Cat. No. CC-3171) on Biocoat Collagen1 coated flasks (Becton Dickinson). NHBE cells were plated in collagen 1 coated plates and cultured in appropriate culture media. The cells were cultured for 24 hours after plating at 37 degrees in the presence of 5% CO2. siNAs were diluted in OptiMEM 1 to 1 uM and the transfection agent to 25 ug/ml. For formulation of the siNAs equal volumes of the diluted siNA and delivery lipid were combined and incubated for 20 minutes at room temperature. Cells were meanwhile trypsinised and resuspended in antibiotic free BEBM media at 150,000 cells/ml. 20 ul of the formulated siNA and 80 ul of BEBM media was added per well of a 96 well plate (6 replicates/data point/siNA concentration) so as to give a nine point dose range of the siNAs (100 nM, 30 nM, 10 nM, 3 nM, 1 nM, 0.3 nM, 0.1 nM, 0.03 nM, 0.01 nM). The time of incubation with the transfection-siNA complexes were 48 hours with one change of media at 24 hours. Total RNA was isolated from the cells in the 96-well plate format using the Automated SV96 Total RNA Isolation System (Promega) according to the manufacturer's instructions. The Biomek 2000 Laboratory Automation Workstation (Beckman Coulter) was used to apply the transfected cell lysates to a silica membrane. RNase-Free DNase I was then applied directly to the silica membrane to digest contaminating genomic DNA. The bound total RNA was further purified from contaminating salts, proteins and cellular impurities by simple washing steps. Finally, total RNA was eluted from the membrane by the addition of Nuclease-Free Water. A series of probes and primers were used for the detection of mRNA transcripts of Bach1, OAS1, IL8 and GAPDH (as control/normalisation) in the human cell lines. The assays were performed on an ABI 7900HT instrument according to the manufacturer's instructions. Primer Probe sets used: With Taqman data critical threshold values (Ct) were converted to copy numbers corresponding to the particular gene analysed in each well of the 384 well plate. Six identical wells were prepared in each plate for a given treatment. […] Relative abundance (aka relative expression) of a gene was determined by dividing the mean copy number of that gene with its GAPDH counterpart in that particular sample. EC50 values were calculated from the data using sigma plot. All calculations of the efficacy and potency of the siNAs were done relative to the non-targeting control siNA. Percentage knockdown was compared between the four lead siNA's. The data was analysed using an ANOVA test and then the p-values were corrected for multiple comparisons using the False Discovery Rate correction (FDR).

Male CD rats = details: rat, in vivo, 10 mg/kg
Description: Male CD rats were anaesthetised and intra-tracheally dosed with 200 ul of either vehicle, Poly I:C (1 mg/kg) or siNA (10 mg/kg). 24 hours later the rats were euthanized and the lungs lavaged 3 times with 5 ml of heparinised PBS. Total and differential cell counts as well as cytokine analysis were performed on the lung lavage fluid.

Substance	EC50 (HMOX-1 mRNA)	Maximum % Hmox-1 Increase in DRC (HMOX-1 mRNA)	Maximum HMOX1 upregulation (HMOX1 mRNA)	cytokine production (Male CD rats)	inflammatory cell (neutrophils and macrophages) influx (Male CD rats)	EC50 (HMOX1 mRNA)
29947-DC (sense GGAAUCCUGCUUUCAGUUUTT; antisense AAACUGAAAGCAGGAUUCCUU; inverted abasic caps (B), 2'-modified nucleotides, further chemistry not given here)	37.7 ± 21.5 pM	187 ± 71%	1566%	no significant increases	no significant increases	–
29956-DC (sense GUCUGAGUGUCCGUGGUUATT; antisense UAACCACGGACACUCAGACUU; inverted abasic caps (B), 2'-modified nucleotides, further chemistry not given here)	30.9 ± 19.9 pM	308 ± 87%	2416%	–	–	33.1 nM
29957-DC (sense GCAGUUACUUCCACUCAAGTT; antisense CUUGAGUGGAAGUAACUGCUU; inverted abasic end caps, TT overhangs, modified nucleotides, further chemistry not given here)	33.6 ± 20 pM	213 ± 29%	290%	–	–	29.8 nM
29961-DC (sense CUACACUGCUAAACUGAUUTT; antisense AAUCAGUUUAGCAGUGUAGUU; inverted abasic end caps, TT overhangs, modified nucleotides, further chemistry not given here)	10.4 ± 10 pM	262 ± 87%	10266%	no significant increases	no significant increases	50.4 nM
29964-DC (sense GAUUUGCAGGUGAUGUUAATT; antisense UUAACAUCACCUGCAAAUCUU; inverted abasic end caps, TT overhangs, modified nucleotides, further chemistry not given here)	21.8 ± 15.5 pM	240 ± 30%	4800%	no significant increases	no significant increases	30.3 nM
29984-DC (sense GUUAAAGGAUUUGAACCUUTT; antisense AAGGUUCAAAUCCUUUAACUU; inverted abasic end caps, TT overhangs, modified nucleotides, further chemistry not given here)	–	–	153%	–	–	–
29988-DC (sense AUUUGAACCUUUAAUUCAGTT; antisense CUGAAUUAAAGGUUCAAAUUU; inverted abasic end caps, TT overhangs, modified nucleotides, further chemistry not given here)	38.2 ± 29.8 pM	190 ± 62%	550%	no significant increases	no significant increases	34.5 nM
